SMILES strings stand for the structures.

The series in a line: gradient 5% acetonitrile 3 min, to 50% in 2 min, to 85% in 15 min, held 3 min, 100 µL/min. The conditions noted are these: column: Zorbax Extend-C18 2.1 x 50 mm; eluents: water / acetonitrile, 0.1% formic acid. In outline:
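Pure standards were analyzed in mixtures of ~100 molecules using HPLC coupled to a quadrupole time-of-flight mass spectrometer, in both positive and negative ionization mode. Separation used a Zorbax Extend-C18 column (2.1 × 50 mm, 1.8 μm) at 100 μL/min, with water and acetonitrile each containing 0.1% formic acid. Dead and dwell volumes were 40 μL and 900 μL, and data were collected over 3 months. Retention time was read from computationally picked adduct peaks, each inspected manually.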
Compound `Cc1onc(-c2ccccc2Cl)c1C(=O)NC1CC1` yielded an RP-LC retention time of 746 s.
As for `CCOc1ccccc1CNC(=O)C1CCCN(c2ncnc3c2oc2ccccc23)C1` (centres undefined), the RP-LC retention time was 813 s.
Take `COc1cc2c(cc1OC)C(C(=O)N1CCN(C)CC1)C(c1ccc(SC)cc1)N(C)C2=O` (centres undefined): the RP-LC retention time was 612 s.
In the case of `Nc1ccc(Br)cc1Br` it was 1000 s; in that of `CCc1nccn1Cc1nc(-c2cccc(F)c2)no1`, 625 s; in that of `Cc1nn(C)cc1CN1CCC[C@H]1c1nc(-c2ccccc2)n[nH]1`, 580 s.
In turn, `O=C(c1ccco1)N1CCC(c2nc(-c3ccccc3)no2)C1` (centres undefined) came in with an RP-LC retention time of 822 s.
Consider `O=C(NC1CCCCC1)C1CCCN(c2cnc3nccnc3c2)C1` (centres undefined), for which the RP-LC retention time was 691 s.
In the case of `Cc1ccc([N+](=O)[O-])cc1S(=O)(=O)N1CCN(c2cccc(Cl)c2)CC1` it was 618 s; in that of `Cc1cc(C)c(NC(=O)Cn2nc3c(N(C)C4CCCCC4)nccn3c2=O)c(C)c1`, 797 s.
`CCOC(=O)N1CCN(C(=O)c2sc(NS(=O)(=O)c3ccccc3)nc2C)CC1` returned an RP-LC retention time of 651 s.
In turn, `COc1cc(OC)cc(-c2nnc(Cc3nc(-c4ccccc4F)no3)o2)c1` yielded an RP-LC retention time of 907 s.
For the compound `O=C(Cc1nnc2cc(-c3nc(C4CC4)no3)ccn12)NC1CCCCC1`, the RP-LC retention time was found to be 737 s.
In the case of `Cc1ccc(NC(=O)C2CCN(S(=O)(=O)c3ccc4c(c3)sc(=O)n4C(C)C)CC2)cc1` it was 942 s; in that of `COc1ccc(-c2noc(-c3nc(-c4cccnc4)no3)n2)cc1`, 966 s; in that of `CCOC(=O)c1cccc(NC(=O)Cn2c(C)nc3c(sc4nc(-c5ccccc5)ccc43)c2=O)c1`, 1090 s.
Consider `Cc1nc(-c2noc(-c3cccc(F)c3)n2)cn1CC(=O)Nc1cccc(Cl)c1`, for which the RP-LC retention time came out at 957 s.
With `CCOc1ccc(-c2csc(Nc3ccccn3)n2)cc1`, the RP-LC retention time stood at 910 s.
In turn, `Cc1ccc(-n2c(N3CCCC(C(=O)Nc4ccccc4)C3)nc3ccsc3c2=O)cc1` (centres undefined) showed an RP-LC retention time of 966 s.
In the case of `COc1cccc(/C=C/c2nc(C#N)c(NCCCN(C)C)o2)c1` it was 651 s; in that of `Cc1ccccc1CNC(=O)C1(C)CCN(S(=O)(=O)c2ccc(F)cc2)CC1`, 925 s.
`COc1ccc(-c2cc3c(=O)n(Cc4cc(C)ccc4C)ccn3n2)cc1OC`: the RP-LC retention time was found to be 1010 s.
Compound `COc1ccccc1-c1cc(C(F)(F)F)n2ncc(C(=O)OCCN3CCOCC3)c2n1` showed an RP-LC retention time of 710 s.
Turning to `Cn1c(=O)c(N2CCC(NC(=O)Nc3ccccc3F)CC2)nc2ccccc21`, the RP-LC retention time worked out at 910 s.
In the case of `O=C(NCCN1CCOCC1)c1nnc(-c2ccc(S(=O)(=O)N3CCOCC3)cc2)o1` it was 578 s; in that of `CCCC(NC(=O)CCc1ccccc1)C(=O)Nc1nc2ccccc2[nH]1` (centres undefined), 718 s.
The compound `CC(C)Oc1ccc(CNC(=O)c2ccc3c(c2)nc2n3CCN(C(C)C)C2=O)cc1` came in with an RP-LC retention time of 754 s.
In the case of `Cc1ccc(NC(=O)CN2CCc3ccccc3C2C(=O)N2CCCCC2)cc1C` (centres undefined) it was 900 s; in that of `Cc1ccc(Oc2ccc(NS(=O)(=O)c3cccs3)cc2)nn1`, 687 s.
In the case of `CCOc1ccc(-c2csc(Cc3nc(-c4ccc(OCC)cc4)no3)n2)cc1` it was 1300 s.
Next, `Cc1cccc(S(=O)(=O)N2CCN(c3cnn4c(C5CC5)nnc4c3)CC2)c1`: 752 s.
Turning to `CCOC(=O)Cc1nnc(-c2ccc(Br)cc2)o1`, the RP-LC retention time amounted to 903 s.
As for `COc1cccc(CNC(=O)Cn2c(C)cc(-c3nnc(C4CCC4)o3)c2C)c1`, the RP-LC retention time amounted to 834 s.
Turning to `COc1ccc(C2C(C(=O)NCc3ccccn3)c3cc(OC)c(OC)cc3C(=O)N2C)cc1OC` (centres undefined), the RP-LC retention time was found to be 595 s.
In the case of `O=C(NCCN1CCOCC1)c1ccc2c(c1)CCCN2S(=O)(=O)c1ccc(Cl)cc1` it was 689 s; in that of `O=C(NC1CCN(c2cc(-c3ccc(F)cc3)[nH]n2)C1)c1cc(F)ccc1Cl` (centres undefined), 685 s.
In the case of `Cc1cc(Cl)ccc1OCC(=O)Nc1nc(-c2ccc(F)cc2)cs1`, the RP-LC retention time is 1190 s.
Compound `Cn1ccc2cc(S(=O)(=O)N3CCCC(C(=O)NC4CCCCCCC4)C3)ccc21` (centres undefined) yielded an RP-LC retention time of 1080 s.
Compound `C=Cc1ccc(Cn2cc(S(=O)(=O)N3CCCC3)ccc2=O)cc1` had an RP-LC retention time of 886 s.
Take `COc1ccc(NC(=O)Cc2nnc3ccc(C(=O)Nc4ccccc4)cn23)cc1`: the RP-LC retention time was 749 s.
Next, `CCc1ccc(CNC(=O)C2CCCN(c3nn4c(=O)c5c(nc4s3)CCCC5)C2)cc1` (centres undefined): 983 s.
In the case of `COc1ccc(NC(=O)c2ccc(-n3cnc(NC(=O)C4CC4)c3)cc2)cc1OC` it was 645 s.
Turning to `Cc1ccccc1Cn1ccnc1C(N)=O`, the RP-LC retention time came to 695 s.
Take `CCCNC(=O)c1ccc2ncn(C)c(=O)c2c1`: the RP-LC retention time was found to be 596 s.
Next, `COc1cccc(N2CCN(C(=O)c3cc4sccc4n3C)CC2)c1`: 988 s; `Cc1cccc(OCC(=O)Nc2c(C(=O)N3CCN(c4ccccn4)CC3)oc3ccccc23)c1`: 800 s; `Cc1csc(-c2nnc(Nc3ccc(Oc4ncccc4-c4ccnc(N)n4)cc3)c3ccccc23)c1`: 731 s.
As to `CC(C)(C)CC(=O)N1CCN(c2nc(CN3CCCCCC3)cs2)CC1`, the RP-LC retention time worked out at 668 s.
In the case of `CCC(C)NC(=O)c1ccc(Cn2nc(C)c(S(=O)(=O)N(C)C)c2C)cc1` (centres undefined), the RP-LC retention time amounted to 754 s.
Turning to `CCCC(NC(=O)c1ccc(C(F)(F)F)cc1)C(=O)Nc1nc2ccccc2[nH]1` (centres undefined), the RP-LC retention time was 802 s.
As to `Cc1ccc(OCC(=O)Nc2cc3c(cc2N2CCCC2)n(C)c(=O)c(=O)n3C)c(C)c1`, the RP-LC retention time was 1000 s.
Compound `CCc1ccc(CN2C(=O)CN(S(C)(=O)=O)CC2(C)C(=O)NC2CCCCCCC2)cc1` (centres undefined) came in with an RP-LC retention time of 1040 s.
`Cc1ccc(CNC(=O)c2cc3sccc3n2Cc2ccc(F)cc2)cc1` returned an RP-LC retention time of 888 s.
In the case of `Cc1ccc(Sc2nccnc2N2CCC(C(=O)Nc3cccc(Br)c3)CC2)cc1`, the RP-LC retention time amounted to 1260 s.
Next, `CC(C)n1c(N2CCN(C(=O)c3ccc4nccnc4c3)CC2)cc(=O)n(C(C)C)c1=O`: 701 s; `COc1ccccc1N1CCN(CC(=O)NC2CCSC2=O)C1=O` (centres undefined): 621 s; `COCCn1cc(CCNC(=O)Nc2cccc(C)c2)c2cccnc21`: 728 s.
The compound `COc1ccc(OC)c(S(=O)(=O)NCc2c(-c3ccccc3)nc3sc(C)nn23)c1` registered an RP-LC retention time of 839 s.
In turn, `CCc1nnc2cc(N3CCN(C(=O)Nc4ccc(C)cc4)CC3)cnn12` gave an RP-LC retention time of 649 s.
In turn, `Cc1nn(C)c(C)c1S(=O)(=O)N1CCC(c2noc(-c3cccnc3)n2)C1` (centres undefined) gave an RP-LC retention time of 662 s.
`CCc1ccc(C(C)NC(=O)C2CCN(Cc3cn(C)c4ccccc34)CC2)cc1` (centres undefined) showed an RP-LC retention time of 764 s.
`COc1cccc(-c2ccc(=O)n(Cc3nc(-c4ccccc4Cl)no3)n2)c1` displayed an RP-LC retention time of 931 s.
As to `CC1CCC2(CC1)NC(=O)N(CC(=O)NCc1ccccc1Cl)C2=O` (centres undefined), the RP-LC retention time was 790 s.
Turning to `Cc1ccc2c(Nc3ccc4c(c3)OCCO4)c(C(=O)N3CCC(C)CC3)cnc2n1`, the RP-LC retention time amounted to 649 s.
In the case of `O=C(c1cccs1)N1CCN(c2[nH]ncc2-c2ccccc2)CC1`, the RP-LC retention time is 808 s.
On to `O=C(c1nccc2ccccc12)N1CCC(OCC2CC2)C1` (centres undefined), for which the RP-LC retention time turned out to be 722 s.
Turning to `Clc1ccc(-c2noc(Cc3nnc(-c4cccc(Br)c4)o3)n2)cc1`, the RP-LC retention time came to 1210 s.
The compound `Cn1c(=O)sc2cc(S(=O)(=O)N3CCC(C(=O)NCc4cccs4)CC3)ccc21` gave an RP-LC retention time of 788 s.
Consider `COc1cc(NC(=O)c2ncoc2-c2ccc(C)o2)cc(OC)c1OC`, for which the RP-LC retention time was 920 s.
The compound `COc1ccc(C)cc1NS(=O)(=O)c1cc(-c2cc(C(F)(F)F)on2)sc1C` showed an RP-LC retention time of 1210 s.
In the case of `COc1ccc2c(c1)C1(CCN(C(=O)Nc3ccccc3OC)C1)C(=O)N2C` (centres undefined), the RP-LC retention time was determined as 808 s.
Turning to `CN(C)c1ccc(CNc2ccc(-c3nc(-c4ccc(F)cc4)no3)cn2)cc1`, the RP-LC retention time came out at 889 s.
Next, `C[C@H](Cc1ccc(O)c(O)c1)[C@@H](C)Cc1ccc(O)c(O)c1`: 878 s; `CCCN1C(=O)c2cc(S(=O)(=O)Nc3cccc(F)c3)ccc2Oc2cccnc21`: 1060 s.
Compound `O=C(Nc1ccccc1F)N1CCC(n2cnc3ccccc3c2=O)CC1` showed an RP-LC retention time of 712 s.
The compound `O=C(c1ccsc1)N1CCC(n2c(C3CCCC3)nc3cccnc32)C1` (centres undefined) registered an RP-LC retention time of 636 s.
`COc1cccc(-c2n[nH]c3c2C(c2ccc(OC)cc2OC)NC3=O)c1` (centres undefined) yielded an RP-LC retention time of 753 s.
Next, `CC1(C(=O)NCc2ccc(F)cc2)CCN(C(=O)Nc2ccccc2Br)CC1`: 871 s; `O=C(NC1CCCCCC1)C1CCN(c2cn[nH]c(=O)c2)C1` (centres undefined): 652 s.

For the origin of these results see the METLIN SMRT retention time set (Domingo-Almenara et al. 2019).
